# Literature values in patent US5612056A, “Transdermal formulations” (priority 1991, dated 1997).
# How the values were obtained:
# [1] = guinea pig, in vivo
# blood cholinesterase = conditions: human, in vivo, iv
smiles,measurement,setting,value
CNC(=O)Oc1ccc2c(c1)[C@]1(C)CCN(C)[C@@H]1N2C [physostigmine],plasma half life,[1],40 to 50 min
same,blood cholinesterase inhibition,blood cholinesterase,approximately 30%
